# Experimental data from US20240101576A1, “HETEROCYCLIC INHIBITORS OF EGFR AND/OR HER2, FOR USE IN THE TREATMENT OF CANCER” (Scorpion Therapeutics, Inc., priority 2020, published 2024).
# Legend:
# Format in all cases: cell-based
# [1] = molecular target: T1, EGFR exon 20 FQEA Ins A763_V764 (Ba/F3 cells) (Homo sapiens, UniProt P00533, INS763FQEA); experiment: Inhibitor activity on EGFR-dependent cell growth (CellTiter-Glo, 72 h), Ba/F3 EGFR exon 20 FQEA Ins; conditions: read-out: BaF3 FQEA IC50
# T1 construct: expressed in transfected cells; host or cells: Ba/F3 (murine pro-B cells), retroviral transduction, puromycin selection, IL3-independent pool
# T1 sequence (P00533 with tags, fused parts or gaps INS763FQEA): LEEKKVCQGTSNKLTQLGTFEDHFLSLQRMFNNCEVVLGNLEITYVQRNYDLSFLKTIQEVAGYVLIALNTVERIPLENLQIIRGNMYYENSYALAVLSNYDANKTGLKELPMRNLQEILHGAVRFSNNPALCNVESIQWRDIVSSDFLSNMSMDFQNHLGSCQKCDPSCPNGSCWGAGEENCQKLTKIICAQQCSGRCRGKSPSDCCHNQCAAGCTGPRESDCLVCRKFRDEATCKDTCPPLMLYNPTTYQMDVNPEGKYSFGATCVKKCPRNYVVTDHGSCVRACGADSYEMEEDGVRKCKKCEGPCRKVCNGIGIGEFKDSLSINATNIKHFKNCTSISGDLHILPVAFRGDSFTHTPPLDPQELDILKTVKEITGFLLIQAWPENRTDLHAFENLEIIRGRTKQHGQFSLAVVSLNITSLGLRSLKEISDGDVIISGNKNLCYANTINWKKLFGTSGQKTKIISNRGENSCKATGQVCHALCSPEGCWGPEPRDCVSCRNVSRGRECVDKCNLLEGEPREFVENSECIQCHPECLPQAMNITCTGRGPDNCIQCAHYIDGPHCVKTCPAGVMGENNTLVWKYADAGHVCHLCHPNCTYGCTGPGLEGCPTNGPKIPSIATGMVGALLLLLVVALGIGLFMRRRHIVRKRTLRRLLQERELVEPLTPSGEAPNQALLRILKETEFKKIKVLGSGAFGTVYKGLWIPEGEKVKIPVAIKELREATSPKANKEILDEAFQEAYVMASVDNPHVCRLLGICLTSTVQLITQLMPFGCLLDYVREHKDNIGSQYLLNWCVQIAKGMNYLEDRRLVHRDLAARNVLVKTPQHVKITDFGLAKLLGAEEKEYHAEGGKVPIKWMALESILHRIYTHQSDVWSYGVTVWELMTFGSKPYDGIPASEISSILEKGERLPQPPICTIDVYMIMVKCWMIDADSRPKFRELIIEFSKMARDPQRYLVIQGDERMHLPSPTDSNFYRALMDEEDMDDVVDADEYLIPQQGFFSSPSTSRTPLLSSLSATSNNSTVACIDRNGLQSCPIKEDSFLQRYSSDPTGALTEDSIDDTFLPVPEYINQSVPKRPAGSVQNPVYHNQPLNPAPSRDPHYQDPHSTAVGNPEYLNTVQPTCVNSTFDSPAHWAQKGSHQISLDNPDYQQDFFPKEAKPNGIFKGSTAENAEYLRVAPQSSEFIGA
# Method in brief: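 Mutant EGFR drives IL3-independent growth of engineered Ba/F3 pools. L858R cells go in at 400/well, L858R/C797S at 600, and exon 19del or FQEA insertion at 800. After 72 h with compound, plates are equilibrated 15 min at RT. Reagent is added 1:1, followed by 30 min and a luminescence read.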
# [2] = molecular target: T2, EGFR exon 20 SVD Ins D770_N771 (Ba/F3 cells) (Homo sapiens, UniProt P00533, INS770SVD); experiment: Inhibitor activity on EGFR-dependent cell growth (CellTiter-Glo, 72 h), Ba/F3 EGFR exon 20 SVD Ins; conditions: read-out: BaF3 SVD IC50
# T2 construct: expressed in transfected cells; host or cells: Ba/F3 (murine pro-B cells), retroviral transduction, puromycin selection, IL3-independent pool
# T2 sequence (P00533 with tags, fused parts or gaps INS770SVD): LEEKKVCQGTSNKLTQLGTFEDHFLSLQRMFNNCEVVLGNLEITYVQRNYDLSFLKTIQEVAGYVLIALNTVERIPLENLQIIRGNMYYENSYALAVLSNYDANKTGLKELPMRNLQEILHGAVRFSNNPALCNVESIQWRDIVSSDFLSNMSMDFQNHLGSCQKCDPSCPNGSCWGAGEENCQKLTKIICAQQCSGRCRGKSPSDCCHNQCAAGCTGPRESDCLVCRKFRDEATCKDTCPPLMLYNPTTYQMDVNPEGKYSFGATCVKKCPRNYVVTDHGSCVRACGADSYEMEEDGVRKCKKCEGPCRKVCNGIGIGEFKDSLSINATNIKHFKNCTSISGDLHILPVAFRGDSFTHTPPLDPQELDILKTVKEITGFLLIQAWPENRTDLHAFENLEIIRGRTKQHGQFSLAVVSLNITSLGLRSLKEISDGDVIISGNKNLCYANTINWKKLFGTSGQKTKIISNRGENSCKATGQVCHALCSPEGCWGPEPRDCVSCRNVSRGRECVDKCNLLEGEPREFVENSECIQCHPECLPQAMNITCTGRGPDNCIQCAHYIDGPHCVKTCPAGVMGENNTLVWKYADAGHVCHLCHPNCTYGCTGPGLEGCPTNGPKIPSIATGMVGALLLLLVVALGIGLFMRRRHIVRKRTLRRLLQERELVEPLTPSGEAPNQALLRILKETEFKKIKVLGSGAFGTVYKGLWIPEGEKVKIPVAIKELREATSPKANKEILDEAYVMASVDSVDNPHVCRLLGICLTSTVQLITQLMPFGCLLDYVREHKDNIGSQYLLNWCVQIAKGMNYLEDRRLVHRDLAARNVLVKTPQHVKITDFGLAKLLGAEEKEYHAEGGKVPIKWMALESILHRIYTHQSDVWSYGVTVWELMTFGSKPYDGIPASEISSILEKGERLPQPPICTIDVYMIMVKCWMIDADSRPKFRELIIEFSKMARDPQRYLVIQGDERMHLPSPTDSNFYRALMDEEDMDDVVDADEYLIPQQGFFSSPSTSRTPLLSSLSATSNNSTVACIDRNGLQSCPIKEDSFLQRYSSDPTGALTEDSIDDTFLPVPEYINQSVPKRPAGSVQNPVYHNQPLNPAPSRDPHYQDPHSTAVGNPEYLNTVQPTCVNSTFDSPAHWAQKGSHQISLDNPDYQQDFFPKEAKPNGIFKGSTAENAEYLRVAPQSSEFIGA
# Method in brief: (§1)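 IC50s derive from a sigmoidal dose–response fit of CellTiter-Glo signal. The signal was normalised between […]-treated cells and cell-free medium. Ba/F3 mutant-EGFR cells, seeded at 400–800/well depending on the line, had 72 h of exposure to a 10-point, 3-fold compound series.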
# EGFR WT (Ba/F3 cells) = molecular target: T3, EGFR WT (Ba/F3 cells) (Homo sapiens, UniProt P00533); experiment: Inhibitor activity on EGFR-dependent cell growth (CellTiter-Glo, 72 h), Ba/F3 EGFR WT; conditions: read-out: BaF3 WT IC50
# T3 construct: expressed in transfected cells; host or cells: Ba/F3 (murine pro-B cells), retroviral transduction, puromycin selection, maintained with EGF
# T3 sequence (P00533 25-1210): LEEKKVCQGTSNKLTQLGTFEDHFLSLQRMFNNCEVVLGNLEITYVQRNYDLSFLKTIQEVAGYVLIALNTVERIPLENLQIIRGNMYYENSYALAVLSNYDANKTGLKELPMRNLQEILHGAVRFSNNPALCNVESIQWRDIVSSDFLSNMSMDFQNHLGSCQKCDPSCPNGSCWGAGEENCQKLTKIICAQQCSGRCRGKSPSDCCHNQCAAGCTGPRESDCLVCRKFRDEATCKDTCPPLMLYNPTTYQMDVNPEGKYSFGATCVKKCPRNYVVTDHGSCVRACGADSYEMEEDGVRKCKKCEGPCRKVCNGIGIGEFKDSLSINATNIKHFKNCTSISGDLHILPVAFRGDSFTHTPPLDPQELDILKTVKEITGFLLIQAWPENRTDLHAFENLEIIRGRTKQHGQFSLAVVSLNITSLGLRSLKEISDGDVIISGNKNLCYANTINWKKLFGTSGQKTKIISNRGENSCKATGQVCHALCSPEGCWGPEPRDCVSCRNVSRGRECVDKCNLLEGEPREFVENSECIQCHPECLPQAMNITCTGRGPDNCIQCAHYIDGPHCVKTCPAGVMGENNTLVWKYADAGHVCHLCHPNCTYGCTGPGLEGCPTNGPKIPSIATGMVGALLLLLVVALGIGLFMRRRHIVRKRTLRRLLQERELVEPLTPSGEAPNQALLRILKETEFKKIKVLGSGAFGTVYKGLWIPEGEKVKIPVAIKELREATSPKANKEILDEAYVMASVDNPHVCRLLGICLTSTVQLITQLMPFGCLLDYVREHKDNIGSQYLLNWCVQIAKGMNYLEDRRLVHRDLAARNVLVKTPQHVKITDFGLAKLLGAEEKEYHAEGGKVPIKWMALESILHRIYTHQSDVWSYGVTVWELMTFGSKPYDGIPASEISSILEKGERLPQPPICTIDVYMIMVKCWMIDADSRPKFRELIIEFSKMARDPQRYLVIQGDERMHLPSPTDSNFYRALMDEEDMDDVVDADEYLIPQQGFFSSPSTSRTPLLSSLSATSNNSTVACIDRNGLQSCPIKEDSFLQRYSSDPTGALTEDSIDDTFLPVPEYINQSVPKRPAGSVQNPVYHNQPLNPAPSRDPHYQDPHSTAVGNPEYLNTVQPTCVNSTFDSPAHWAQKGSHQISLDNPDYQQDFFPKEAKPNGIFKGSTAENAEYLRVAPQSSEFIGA
# Method in brief: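 This growth assay used Ba/F3 cells that depend on wild-type EGFR and are kept in EGF without IL3. Compounds were made up as 10 mM DMSO stocks and diluted 3-fold over 10 points. 120 nL went onto 600 cells/well. After 72 hours, 40 μL CellTiter-Glo was added and luminescence read on EnVision after 30 min.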
# [3] = molecular target: T4, EGFR exon 20 ASV Ins V769_D770 (Ba/F3 cells) (Homo sapiens, UniProt P00533, INS769ASV); experiment: Inhibitor activity on EGFR-dependent cell growth (CellTiter-Glo, 72 h), Ba/F3 EGFR exon 20 ASV Ins; conditions: read-out: BaF3 ASV IC50
# T4 construct: expressed in transfected cells; host or cells: Ba/F3 (murine pro-B cells), retroviral transduction, puromycin selection, IL3-independent pool
# T4 sequence (P00533 with tags, fused parts or gaps INS769ASV): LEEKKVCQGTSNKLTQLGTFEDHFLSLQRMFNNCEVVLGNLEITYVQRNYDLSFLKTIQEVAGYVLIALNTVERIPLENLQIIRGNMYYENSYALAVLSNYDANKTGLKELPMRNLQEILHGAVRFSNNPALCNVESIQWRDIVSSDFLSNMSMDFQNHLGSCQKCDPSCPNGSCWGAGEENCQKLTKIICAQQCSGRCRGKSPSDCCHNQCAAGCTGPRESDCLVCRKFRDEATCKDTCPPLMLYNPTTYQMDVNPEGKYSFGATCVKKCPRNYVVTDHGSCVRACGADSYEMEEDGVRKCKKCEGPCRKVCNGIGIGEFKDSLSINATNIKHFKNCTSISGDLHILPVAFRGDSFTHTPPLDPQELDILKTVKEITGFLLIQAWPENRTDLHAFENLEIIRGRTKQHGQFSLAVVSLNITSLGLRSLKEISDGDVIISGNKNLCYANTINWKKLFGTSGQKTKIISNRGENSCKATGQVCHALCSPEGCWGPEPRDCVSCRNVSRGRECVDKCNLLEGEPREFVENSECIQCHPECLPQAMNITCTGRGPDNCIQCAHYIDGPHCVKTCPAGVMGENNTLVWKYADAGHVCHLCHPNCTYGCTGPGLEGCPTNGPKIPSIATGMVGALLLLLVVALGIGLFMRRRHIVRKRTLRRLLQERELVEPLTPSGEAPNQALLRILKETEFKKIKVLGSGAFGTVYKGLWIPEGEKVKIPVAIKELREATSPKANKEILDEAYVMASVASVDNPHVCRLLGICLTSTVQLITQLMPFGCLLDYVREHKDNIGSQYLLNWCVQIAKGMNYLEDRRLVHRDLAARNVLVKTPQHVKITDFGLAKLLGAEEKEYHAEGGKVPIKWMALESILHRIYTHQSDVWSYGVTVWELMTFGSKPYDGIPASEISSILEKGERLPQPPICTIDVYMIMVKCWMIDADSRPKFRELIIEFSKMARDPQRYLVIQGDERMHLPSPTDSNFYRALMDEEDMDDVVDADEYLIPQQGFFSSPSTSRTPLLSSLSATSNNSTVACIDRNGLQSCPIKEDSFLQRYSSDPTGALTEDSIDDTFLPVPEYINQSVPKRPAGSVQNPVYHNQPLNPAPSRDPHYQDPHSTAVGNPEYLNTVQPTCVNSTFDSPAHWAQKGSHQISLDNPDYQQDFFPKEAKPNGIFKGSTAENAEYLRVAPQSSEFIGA
# Method in brief: as §1
Structure (SMILES),IC50 [1] [µM],IC50 [2] [µM],IC50 (EGFR WT (Ba/F3 cells)) [µM],IC50 [3] [µM]
"COc1ncc2nccc(-c3[nH]c4c(c3Nc3cccc(C)c3F)C(=O)NCC4)c2n1 [Compound 804, 3-[(2-fluoro-3-methylphenyl)amino]-2-[2-methoxypyrido[3,2-d]pyrimidin-8-yl]-1H,5H,6H,7H-pyrrolo[3,2-c]pyridin-4-one]",< 0.1,< 0.1,0.1 to 1,0.1 to 1
COc1ccc2nccc(-c3[nH]c4c(c3Nc3cccc(Cl)c3OC)C(=O)NC[C@@H]4C)c2n1 [310b],< 0.1,< 0.1,< 0.1,< 0.1
"COc1ncc2nccc(-c3[nH]c4c(c3Nc3cccc(F)c3CC(F)F)C(=O)NCC4)c2n1 [Compound 795, 3-{[2-(2,2-difluoroethyl)-3-fluorophenyl]amino}-2-{2-methoxypyrido[3,2-d]pyrimidin-8-yl}-1H,5H,6H,7H-pyrrolo[3,2-c]pyridin-4-one]",0.1 to 1,0.1 to 1,> 1,0.1 to 1
COc1c(F)cccc1Nc1c(-c2ccnc3[nH]ccc23)[nH]c2c1C(=O)NCC2 [compound 252],0.1 to 1,0.1 to 1,> 1,0.1 to 1
"COc1c(Cl)cccc1Nc1c(-c2ccncc2F)[nH]c2c1C(=O)NCC21COC1 [Compound 748, 3′-[(3-chloro-2-methoxyphenyl)amino]-2′-(3-fluoropyridin-4-yl)-5′,6′-dihydro-1′H-spiro[oxetane-3,7′-pyrrolo[3,2-c]pyridin]-4′-one]",0.1 to 1,0.1 to 1,> 1,0.1 to 1
"COc1ncc2nccc(-c3[nH]c4c(c3Nc3cccc(F)c3F)C(=O)NCC4)c2n1 [Compound 805, 3-[(2,3-difluorophenyl)amino]-2-[2-methoxypyrido[3,2-d]pyrimidin-8-yl]-1H,5H,6H,7H-pyrrolo[3,2-c]pyridin-4-one]",< 0.1,< 0.1,0.1 to 1,0.1 to 1
"COc1cc2nccc(-c3[nH]c4c(c3Nc3cccc(F)c3OC)C(=O)NCC4)c2nc1OC [Compound 807, 2-(6,7-dimethoxy-1,5-naphthyridin-4-yl)-3-[(3-fluoro-2-methoxyphenyl)amino]-1H,5H,6H,7H-pyrrolo[3,2-c]pyridin-4-one]",< 0.1,< 0.1,< 0.1,< 0.1
COc1c(Cl)cccc1Nc1c(-c2ccncc2F)[nH]c2c1C(=O)NC[C@@H]2CC(N)=O [Compound 474],> 1,> 1,> 1,> 1
"COC[C@H]1CNC(=O)c2c1[nH]c(-c1ccnc3ccc(OC)nc13)c2Nc1cccc(Cl)c1OC [Compound 764, (7S)-3-[(3-chloro-2-methoxyphenyl)amino]-2-(6-methoxy-1,5-naphthyridin-4-yl)-7-(methoxymethyl)-1H,5H,6H,7H-pyrrolo[3,2-c]pyridin-4-one]",< 0.1,< 0.1,< 0.1,< 0.1
"COc1ncc2nccc(-c3[nH]c4c(c3Nc3cccc(Cl)c3OC(F)(F)F)C(=O)NCC4)c2n1 [Compound 802, 3-[[3-chloro-2-(trifluoromethoxy)phenyl]amino]-2-[2-methoxypyrido[3,2-d]pyrimidin-8-yl]-1H,5H,6H,7H-pyrrolo[3,2-c]pyridin-4-one]",> 1,> 1,> 1,> 1
"COc1c(Cl)cccc1Nc1c(-c2ccnc3cnc(C4CC4)nc23)[nH]c2c1C(=O)NCC2 [Compound 776, 3-[(3-chloro-2-methoxyphenyl)amino]-2-{2-cyclopropylpyrido[3,2-d]pyrimidin-8-yl}-1H,5H,6H,7H-pyrrolo[3,2-c]pyridin-4-one]",< 0.1,< 0.1,0.1 to 1,< 0.1
"COc1ncc2nccc(-c3[nH]c4c(c3Nc3cccc(Cl)c3)C(=O)NCC4)c2n1 [Compound 798, 3-[(3-chlorophenyl)amino]-2-[2-methoxypyrido[3,2-d]pyrimidin-8-yl]-1H,5H,6H,7H-pyrrolo[3,2-c]pyridin-4-one]",< 0.1,< 0.1,0.1 to 1,< 0.1
"COc1c(Cl)cccc1Nc1c(-c2ccnc3ccc(OC4CC4)nc23)[nH]c2c1C(=O)NC[C@@H]2C [Compound 770, (S)-3-((3-chloro-2-methoxyphenyl)amino)-2-(6-cyclopropoxy-1,5-naphthyridin-4-yl)-7-methyl-1,5,6,7-tetrahydro-4H-pyrrolo[3,2-c]pyridin-4-one]",< 0.1,< 0.1,< 0.1,< 0.1
"COc1cc2c(-c3[nH]c4c(c3Nc3cccc(Cl)c3OC)C(=O)NCC4)ccnc2cn1 [Compound 772, 3-[(3-chloro-2-methoxyphenyl)amino]-2-(6-methoxy-1,7-naphthyridin-4-yl)-1H,5H,6H,7H-pyrrolo[3,2-c]pyridin-4-one]",> 1,> 1,> 1,> 1
"COc1ccc2nccc(-c3[nH]c4c(c3Nc3cccc(Cl)c3OC)C(=O)NC[C@@H]4CCF)c2n1 [Compound 744, (S)-3-((3-chloro-2-methoxyphenyl)amino)-7-(2-fluoroethyl)-2-(6-methoxy-1,5-naphthyridin-4-yl)-1,5,6,7-tetrahydro-4H-pyrrolo[3,2-c]pyridin-4-one]",< 0.1,< 0.1,< 0.1,< 0.1

# More lines, now with the values ahead:
IC50 [1] [µM],IC50 [2] [µM],IC50 (EGFR WT (Ba/F3 cells)) [µM],IC50 [3] [µM],Structure (SMILES)
< 0.1,< 0.1,0.1 to 1,< 0.1,COc1c(Cl)cccc1Nc1c(-c2ccnc3ccc(OC4CC4)nc23)[nH]c2c1C(=O)NCC21CC1 [compound 323]
> 1,> 1,> 1,0.1 to 1,"COc1c(Cl)cccc1Nc1c(-c2ccnc(NC[C@H]3COCCO3)n2)[nH]c2c1C(=O)NCC2 [compound 723, 3-[(3-chloro-2-methoxyphenyl)amino]-2-(2-[[(2S)-1,4-dioxan-2-ylmethyl]amino]pyrimidin-4-yl)-1H,5H,6H,7H-pyrrolo[3,2-c]pyridin-4-one]"
> 1,> 1,> 1,> 1,"COc1c(Cl)cccc1Nc1c(-c2ccncc2F)[nH]c2c1C(=O)NC[C@H]2CCN1CCOCC1 [compound 484, (7R)-3-[(3-chloro-2-methoxyphenyl)amino]-2-(3-fluoropyridin-4-yl)-7-[2-(morpholin-4-yl)ethyl]-1H,5H,6H,7H-pyrrolo[3,2-c]pyridin-4-one]"
0.1 to 1,< 0.1,> 1,< 0.1,"COc1c(Cl)cccc1Nc1c(-c2ccnc3cnc(OCCCN4CCOCC4)nc23)[nH]c2c1C(=O)NCC2 [compound 505, 3-[(3-chloro-2-methoxyphenyl)amino]-2-{2-[3-(morpholin-4-yl)propoxy]pyrido[3,2-d]pyrimidin-8-yl}-1H,5H,6H,7H-pyrrolo[3,2-c]pyridin-4-one]"
> 1,> 1,> 1,> 1,"COc1ccc2ncc(F)c(-c3[nH]c4c(c3Nc3cccc(Cl)c3OC)C(=O)NCC4)c2n1 [compound 829, 3-[(3-chloro-2-methoxyphenyl)amino]-2-(3-fluoro-6-methoxy-1,5-naphthyridin-4-yl)-1H,5H,6H,7H-pyrrolo[3,2-c]pyridin-4-one]"
0.1 to 1,< 0.1,0.1 to 1,< 0.1,"COc1c(Cl)cccc1Nc1c(-c2ccnc(Nc3cnn(C4CCOCC4)c3)n2)[nH]c2c1C(=O)NCC2 [compound 517, 3-[(3-chloro-2-methoxyphenyl)amino]-2-(2-{[1-(oxan-4-yl)pyrazol-4-yl]amino}pyrimidin-4-yl)-1H,5H,6H,7H-pyrrolo[3,2-c]pyridin-4-one]"
0.1 to 1,0.1 to 1,> 1,0.1 to 1,COc1c(Cl)cccc1Nc1c(-c2ccncc2F)[nH]c2c1C(=O)NC[C@]21CCN(C)C1 [compound 815]
0.1 to 1,0.1 to 1,0.1 to 1,0.1 to 1,COc1c(F)cccc1Nc1c(-c2ccnc(SC)n2)[nH]c2c1C(=O)NCC2 [compound 255]
0.1 to 1,0.1 to 1,> 1,0.1 to 1,COc1c(Cl)cccc1Nc1c(-c2ccncc2F)[nH]c2c1C(=O)NC[C@@]21CCN(C)C1 [compound 816]
